Laboratory results taken from ChEMBL document CHEMBL1139116, “Discovery and SAR of isonicotinamide BACE-1 inhibitors that bind beta-secretase in a N-terminal 10s-loop down conformation” (Bioorg Med Chem Lett, 2007).

Test: Partition coefficient, log P of the compound
Type: physicochemical
Details: octanol/water

| SMILES | logP |
| --- | --- |
| CCCC[C@H](N)[C@H](Cc1ccccc1)NC(=O)c1cc(NCC2CC2C)nc(N(C)S(C)(=O)=O)c1 (mixture of isomers) | > 2.51 |
| CC1CC1CNc1cc(C(=O)N[C@@H](Cc2ccccc2)[C@@H](N)CCC(F)(F)F)cc(N(C)S(C)(=O)=O)n1 (mixture of isomers) | > 3.5 |
